Laboratory results: ChEMBL document CHEMBL1687779, “Sodium nitrite-mediated killing of the major cystic fibrosis pathogens Pseudomonas aeruginosa, Staphylococcus aureus, and Burkholderia cepacia under anaerobic planktonic and biofilm conditions” (2010)
Activity calls are given as the source filed them. The calls are words filed in the database; no cut-off is given here.

What was measured:
[1] = system: Staphylococcus aureus; experiment: Antimicrobial activity against Staphylococcus aureus USA300 after 24 hrs anaerobic condition; conditions: USA300, 24 h
[2] = system: Pseudomonas aeruginosa; conditions: PAO1, 64 to 256 ug/ml
Description: Antimicrobial activity against non-mucoid Pseudomonas aeruginosa PAO1 assessed as inhibition of bacterial cell growth at 64 to 256 ug/ml after 24 hrs under anaerobic condition

[3] = system: Staphylococcus aureus; conditions: USA300, 1024 ug/ml
Description: Antimicrobial activity against Staphylococcus aureus USA300 assessed as 2 log inhibition of bacterial cell growth at 1024 ug/ml after 2 days under anaerobic condition

[4] = system: Pseudomonas aeruginosa; experiment: Antimicrobial activity against mucoid Pseudomonas aeruginosa FRD1 harboring mucA22 mutant after 24 hrs under anaerobic condition; conditions: FRD1, 24 h
[5] = system: Staphylococcus aureus; conditions: USA300, 512 ug/ml
Description: Antimicrobial activity against Staphylococcus aureus USA300 assessed as inhibition of bacterial cell growth at 512 ug/ml after 24 hrs under anaerobic condition

[6] = system: Staphylococcus aureus; conditions: USA300, 2048 ug/ml
Description: Antimicrobial activity against Staphylococcus aureus USA300 assessed as 4 log inhibition of bacterial cell growth at 2048 ug/ml after 4 days under anaerobic condition

[7] = system: Pseudomonas aeruginosa; conditions: FRD1, 64 ug/ml
Description: Antimicrobial activity against mucoid Pseudomonas aeruginosa FRD1 harboring mucA22 mutant assessed as inhibition of bacterial cell growth at 64 ug/ml after 24 hrs under anaerobic condition

[8] = system: Burkholderia cepacia; experiment: microbe, parasite or virus in culture; conditions: 24 h
Description: Antimicrobial activity against Burkholderia cepacia isolated from cystic fibrosis patient after 24 hrs aerobic condition

[9] = system: Burkholderia cepacia; conditions: 128 ug/ml
Description: Antimicrobial activity against Burkholderia cepacia isolated from cystic fibrosis patient assessed as inhibition of bacterial cell growth at 128 ug/ml after 48 hrs under anaerobic condition

[10] = system: Pseudomonas aeruginosa; conditions: FRD1, 128 ug/ml
Description: Antimicrobial activity against mucoid Pseudomonas aeruginosa FRD1 harboring mucA22 mutant assessed as inhibition of bacterial cell growth at 128 ug/ml after 24 hrs under anaerobic condition

[11] = system: Pseudomonas aeruginosa; experiment: Antimicrobial activity against mucoid Pseudomonas aeruginosa FRD1 harboring mucA22 mutant after 24 hrs under aerobic condition; conditions: FRD1, 24 h
[12] = system: Pseudomonas aeruginosa; experiment: Antimicrobial activity against non-mucoid Pseudomonas aeruginosa PAO1 after 24 hrs anaerobic condition; conditions: PAO1, 24 h
[13] = system: Staphylococcus aureus; experiment: Antimicrobial activity against Staphylococcus aureus USA300 after 24 hrs aerobic condition; conditions: USA300, 24 h
[14] = system: Pseudomonas aeruginosa; conditions: FRD1, 256 ug/ml
Description: Antimicrobial activity against mucoid Pseudomonas aeruginosa FRD1 harboring mucA22 mutant assessed as 2 log inhibition of bacterial cell growth at 256 ug/ml after 2 days under anaerobic condition

[15] = system: Pseudomonas aeruginosa; experiment: Antimicrobial activity against non-mucoid Pseudomonas aeruginosa PAO1 after 24 hrs aerobic condition; conditions: PAO1, 24 h

`O=N[O-].[Na+]` [SODIUM NITRITE] was tested, and the MIC [1] was 1020 µg/mL, the inhibition [2] was “Active” and the inhibition [3] was “Active”. For the same molecule, the MIC [4] was 128 µg/mL, the inhibition [5] was “Active” and the inhibition [6] was “Active”. The inhibition [7] was “Active”, the MIC [8] was 512 µg/mL and the inhibition [9] was “Active”. For the same molecule, the inhibition [10] was “Active”, the MIC [11] was 1020 µg/mL and the MIC [12] was 512 µg/mL. For the same molecule, the MIC [13] was 4100 µg/mL, the inhibition [14] was “Active” and the MIC [15] was 2050 µg/mL.
